In ChEMBL document CHEMBL3046626, “Antifungal chalcones and new caffeic acid esters from Zuccagnia punctata acting against soybean infecting fungi” (2004):
In brackets after ≈: the same amount, converted by molar mass.

Columns and labels:
Type in all cases: functional
[1] = test system: Alternaria alternata; experiment: Antifungal activity against Alternaria alternata (CE172) after 48 to 72 hr
[2] = test system: Macrophomina phaseolina; experiment: Antifungal activity against Macrophomina phaseolina isolate CE173 after 48 to 72 hr
[3] = test system: Fusarium graminearum; experiment: microbe, parasite or virus in culture; settings: isolate CE135
[4] = test system: Diaporthe longicolla; experiment: Antifungal activity against Diaporthe longicolla CE117 after 48 to 72 hr
[5] = test system: Fusarium graminearum; experiment: microbe, parasite or virus in culture; settings: isolate CE171
[6] = test system: Colletotrichum truncatum; experiment: Antifungal activity against Colletotrichum truncatum CE175 after 48 to 72 hr
[7] = test system: Fusarium equiseti; experiment: Antifungal activity against Fusarium equiseti (CE181) after 48 to 72 hr
[8] = test system: Fusarium graminearum; experiment: microbe, parasite or virus in culture; settings: isolate CE169
[9] = test system: Fusarium graminearum; experiment: microbe, parasite or virus in culture; settings: isolate CE170

COC(=O)N(OC)c1ccccc1COc1ccn(-c2ccc(Cl)cc2)n1 [PYRACLOSTROBIN]
MIC [1]: 0.4 µg/mL (≈ 1.03 µM)
MIC [2]: 2.5 µg/mL (≈ 6.45 µM)
MIC [3]: 1 µg/mL (≈ 2.58 µM)
MIC [4]: 0.01 µg/mL (≈ 0.0258 µM)
MIC [5]: 0.05 µg/mL (≈ 0.129 µM)
MIC [6]: 0.04 µg/mL (≈ 0.103 µM)
MIC [7]: 12.5 µg/mL (≈ 32.2 µM)
MIC [8]: 20 µg/mL (≈ 51.6 µM)
MIC [9]: 0.05 µg/mL (≈ 0.129 µM)

O=C(/C=C/c1ccccc1)c1ccc(O)cc1O [2',4'-DIHYDROXYCHALCONE]
MIC [1]: 25 µg/mL (≈ 104 µM)
MIC [2]: 50 µg/mL (≈ 208 µM)
MIC [3]: 25 µg/mL (≈ 104 µM)
MIC [4]: 3.12 µg/mL (≈ 13 µM)
MIC [5]: 25 µg/mL (≈ 104 µM)
MIC [6]: 6.25 µg/mL (≈ 26 µM)
MIC [7]: 25 µg/mL (≈ 104 µM)
MIC [8]: 25 µg/mL (≈ 104 µM)
MIC [9]: 25 µg/mL (≈ 104 µM)

CC(CCc1ccc(O)cc1)OC(=O)/C=C/c1ccc(O)c(O)c1 (stereo unspecified)
MIC [1]: > 50 µg/mL
MIC [2]: > 50 µg/mL
MIC [3]: > 50 µg/mL
MIC [4]: 6.25 µg/mL (≈ 19 µM)
MIC [5]: > 50 µg/mL
MIC [6]: > 50 µg/mL
MIC [7]: > 50 µg/mL
MIC [8]: > 50 µg/mL
MIC [9]: > 50 µg/mL

COC(=O)Nc1nc2ccccc2[nH]1 [CARBENDAZIM]
MIC [1]: 75 µg/mL (≈ 392 µM)
MIC [2]: 0.25 µg/mL (≈ 1.31 µM)
MIC [3]: 0.75 µg/mL (≈ 3.92 µM)
MIC [4]: 0.01 µg/mL (≈ 0.0523 µM)
MIC [5]: 0.4 µg/mL (≈ 2.09 µM)
MIC [6]: 0.01 µg/mL (≈ 0.0523 µM)
MIC [7]: 0.75 µg/mL (≈ 3.92 µM)
MIC [9]: 0.75 µg/mL (≈ 3.92 µM)

COc1c(O)ccc(C(=O)/C=C/c2ccccc2)c1O [LARREIN]
MIC [1]: 25 µg/mL (≈ 92.5 µM)
MIC [2]: 50 µg/mL (≈ 185 µM)
MIC [3]: 12.5 µg/mL (≈ 46.2 µM)
MIC [4]: 6.25 µg/mL (≈ 23.1 µM)
MIC [5]: 12.5 µg/mL (≈ 46.2 µM)
MIC [6]: 6.25 µg/mL (≈ 23.1 µM)
MIC [7]: 25 µg/mL (≈ 92.5 µM)
MIC [8]: 12.5 µg/mL (≈ 46.2 µM)
MIC [9]: 25 µg/mL (≈ 92.5 µM)

CO/C=C(/C(=O)OC)c1ccccc1Oc1cc(Oc2ccccc2C#N)ncn1 [AZOXYSTROBIN]
MIC [1]: 2.5 µg/mL (≈ 6.2 µM)
MIC [2]: 2.5 µg/mL (≈ 6.2 µM)
MIC [3]: 5 µg/mL (≈ 12.4 µM)
MIC [4]: 0.05 µg/mL (≈ 0.124 µM)
MIC [5]: 0.4 µg/mL (≈ 0.992 µM)
MIC [6]: 0.05 µg/mL (≈ 0.124 µM)
MIC [7]: 12.5 µg/mL (≈ 31 µM)
MIC [8]: 7.5 µg/mL (≈ 18.6 µM)
MIC [9]: 0.25 µg/mL (≈ 0.62 µM)

CC(=O)N1CCN(c2ccc(OCC3COC(Cn4ccnc4)(c4ccc(Cl)cc4Cl)O3)cc2)CC1 (stereo unspecified) [KETOCONAZOLE]
MIC [1]: 5 µg/mL (≈ 9.41 µM)
MIC [2]: 50 µg/mL (≈ 94.1 µM)
MIC [3]: 40 µg/mL (≈ 75.3 µM)
MIC [4]: 0.5 µg/mL (≈ 0.941 µM)
MIC [5]: 40 µg/mL (≈ 75.3 µM)
MIC [6]: 1.5 µg/mL (≈ 2.82 µM)
MIC [7]: 50 µg/mL (≈ 94.1 µM)
MIC [8]: 40 µg/mL (≈ 75.3 µM)
MIC [9]: 40 µg/mL (≈ 75.3 µM)

CC(CCc1ccc(O)c(O)c1)OC(=O)/C=C/c1ccc(O)c(O)c1 (stereo unspecified)
MIC [1]: > 50 µg/mL
MIC [2]: > 50 µg/mL
MIC [3]: > 50 µg/mL
MIC [4]: > 50 µg/mL
MIC [5]: > 50 µg/mL
MIC [6]: > 50 µg/mL
MIC [7]: > 50 µg/mL
MIC [8]: > 50 µg/mL
MIC [9]: > 50 µg/mL
